9 cell lines from the supplement of paper PMC10307832 can be followed below.

What all share (test): relative viability (nuclei count vs DMSO), 5 days (fraction); higher = more cells survive
Compound in test [1]: O=C(CCCCCCNC(=O)c1cnc(N(c2ccccc2)c2ccccc2)nc1)NO [Ricolinostat] + CS(=O)(=O)N1CCN(Cc2cc3nc(-c4cccc5[nH]ncc45)nc(N4CCOCC4)c3s2)CC1 [Pictilisib] (partner 1 µM)
The gist of the method: (§1)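 Values are medians from duplicate plates. Each reflects relative viability, defined as the nuclei count of treated wells over that of vehicle wells. Lung cancer cell lines in 1536-well plates were pin-tool dosed one day after seeding with one drug alone or with a fixed anchor-drug dose plus five library-drug doses (not always all listed) in √10 steps, then fixed, stained and imaged at 4× after 5 days.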

Compound in the test “Ricolinostat + Foretinib”: O=C(CCCCCCNC(=O)c1cnc(N(c2ccccc2)c2ccccc2)nc1)NO [Ricolinostat] + COc1cc2c(Oc3ccc(NC(=O)C4(C(=O)Nc5ccc(F)cc5)CC4)cc3F)ccnc2cc1OCCCN1CCOCC1 [Foretinib] (partner 0.25 µM)
The gist of the method: as §1

Compound in test [2]: O=C(CCCCCCNC(=O)c1cnc(N(c2ccccc2)c2ccccc2)nc1)NO [Ricolinostat] + CC(=O)c1c(C)c2cnc(Nc3ccc(N4CCNCC4)cn3)nc2n(C2CCCC2)c1=O [Palbociclib] (partner 0.5 µM)
Put shortly:
as §1

Compound in the test “TGX 221 + OSI-027”: CC1=CN2C(=O)C=C(N=C2C(=C1)C(C)NC3=CC=CC=C3)N4CCOCC4 [TGX 221] + COc1cccc2cc(-c3nc([C@H]4CC[C@H](C(=O)O)CC4)n4ncnc(N)c34)[nH]c12 [OSI-027] (partner 0.5 µM)
The gist of the method:
as §1

With 201T, the relative viability stood at 0.586 in test [1] (first compound 0.08 µM); 0.748 in test [1] (first compound 0.253 µM); 0.727 in test [1] (first compound 0.8 µM); 0.606 in test [1] (first compound 2.53 µM); 1.09 with Ricolinostat + Foretinib (first compound 0.253 µM); 1.14 with Ricolinostat + Foretinib (first compound 0.8 µM). For the same cell line, the relative viability with Ricolinostat + Foretinib (first compound 2.53 µM) is 1.08; in test [2] (first compound 0.08 µM), 0.362; in test [2] (first compound 0.253 µM) it was 0.356; in test [2] (first compound 0.8 µM) it was 0.36; in test [2] (first compound 2.53 µM), 0.369; in the test with TGX 221 + OSI-027 (first compound 0.08 µM), 0.547. The relative viability with TGX 221 + OSI-027 (first compound 0.253 µM) came out at 0.726; in the test with TGX 221 + OSI-027 (first compound 0.8 µM) it was 1.08; in the test with TGX 221 + OSI-027 (first compound 2.53 µM), 0.708; in the test with TGX 221 + OSI-027 (first compound 8 µM), 0.696.

As to A549, the relative viability came out at 0.405 in test [1] (first compound 0.08 µM); 0.517 in test [1] (first compound 0.253 µM); 0.471 in test [1] (first compound 0.8 µM); 0.312 in test [1] (first compound 2.53 µM); 0.859 in the test with Ricolinostat + Foretinib (first compound 0.08 µM); 0.99 in the test with Ricolinostat + Foretinib (first compound 0.253 µM). In addition, the relative viability in the test with Ricolinostat + Foretinib (first compound 0.8 µM) came to 0.928; with Ricolinostat + Foretinib (first compound 2.53 µM), 0.917.

Turning to A-427, the relative viability was determined as 0.626 in test [1] (first compound 0.08 µM); 0.722 in test [1] (first compound 0.253 µM); 0.781 in test [1] (first compound 0.8 µM); 0.757 in test [1] (first compound 2.53 µM); 1.17 with Ricolinostat + Foretinib (first compound 0.253 µM); 0.925 with Ricolinostat + Foretinib (first compound 0.8 µM). For the same cell line, the relative viability with Ricolinostat + Foretinib (first compound 2.53 µM) came out at 1.14; in test [2] (first compound 0.08 µM) it was 0.503; in test [2] (first compound 0.253 µM), 0.531; in test [2] (first compound 0.8 µM), 0.474; in test [2] (first compound 2.53 µM), 0.457; in the test with TGX 221 + OSI-027 (first compound 0.08 µM), 0.53. The relative viability in the test with TGX 221 + OSI-027 (first compound 0.253 µM) amounted to 0.491; with TGX 221 + OSI-027 (first compound 0.8 µM), 0.506; in the test with TGX 221 + OSI-027 (first compound 2.53 µM), 0.473; in the test with TGX 221 + OSI-027 (first compound 8 µM) it was 0.448.

Take ABC-1: the relative viability in test [1] (first compound 0.08 µM) was determined as 0.541; in test [1] (first compound 0.253 µM), 0.731; in test [1] (first compound 0.8 µM), 0.606; in test [1] (first compound 2.53 µM), 0.446; with Ricolinostat + Foretinib (first compound 0.08 µM) it was 0.88; with Ricolinostat + Foretinib (first compound 0.253 µM), 0.901. For the same cell line, the relative viability with Ricolinostat + Foretinib (first compound 0.8 µM) is 1.11; with Ricolinostat + Foretinib (first compound 2.53 µM) it was 0.912; in test [2] (first compound 0.08 µM) it was 0.585; in test [2] (first compound 0.253 µM), 0.631; in test [2] (first compound 0.8 µM), 0.8; in test [2] (first compound 2.53 µM), 0.612. Also, the relative viability is 0.518 with TGX 221 + OSI-027 (first compound 0.08 µM); 0.505 with TGX 221 + OSI-027 (first compound 0.253 µM); 0.593 in the test with TGX 221 + OSI-027 (first compound 0.8 µM); 0.432 with TGX 221 + OSI-027 (first compound 2.53 µM); 0.406 with TGX 221 + OSI-027 (first compound 8 µM).

As to BEN, the relative viability in test [1] (first compound 0.08 µM) came to 0.462; in test [1] (first compound 0.253 µM), 0.532; in test [1] (first compound 0.8 µM), 0.425; in test [1] (first compound 2.53 µM), 0.354; with Ricolinostat + Foretinib (first compound 0.08 µM), 0.657; in the test with Ricolinostat + Foretinib (first compound 0.253 µM), 0.598. The relative viability with Ricolinostat + Foretinib (first compound 0.8 µM) is 0.483; in the test with Ricolinostat + Foretinib (first compound 2.53 µM), 0.481; in test [2] (first compound 0.08 µM), 0.461; in test [2] (first compound 0.253 µM) it was 0.474; in test [2] (first compound 0.8 µM) it was 0.499; in test [2] (first compound 2.53 µM) it was 0.451. Besides, the relative viability with TGX 221 + OSI-027 (first compound 0.08 µM) came out at 0.293; in the test with TGX 221 + OSI-027 (first compound 0.253 µM), 0.271; with TGX 221 + OSI-027 (first compound 0.8 µM) it was 0.276; in the test with TGX 221 + OSI-027 (first compound 2.53 µM), 0.287; in the test with TGX 221 + OSI-027 (first compound 8 µM), 0.296.

Turning to CAL-12T, the relative viability stood at 0.339 in test [1] (first compound 0.08 µM); 0.479 in test [1] (first compound 0.253 µM); 0.344 in test [1] (first compound 0.8 µM); 0.388 in test [1] (first compound 2.53 µM); 1.04 in the test with Ricolinostat + Foretinib (first compound 0.08 µM); 1.17 with Ricolinostat + Foretinib (first compound 0.253 µM). In addition, the relative viability turned out to be 1.12 with Ricolinostat + Foretinib (first compound 0.8 µM); 1.35 with Ricolinostat + Foretinib (first compound 2.53 µM); 0.443 in test [2] (first compound 0.08 µM); 0.464 in test [2] (first compound 0.253 µM); 0.413 in test [2] (first compound 0.8 µM); 0.43 in test [2] (first compound 2.53 µM). Moreover, the relative viability was found to be 0.604 with TGX 221 + OSI-027 (first compound 0.08 µM); 0.471 in the test with TGX 221 + OSI-027 (first compound 0.253 µM); 0.821 in the test with TGX 221 + OSI-027 (first compound 0.8 µM); 0.486 with TGX 221 + OSI-027 (first compound 2.53 µM); 0.567 in the test with TGX 221 + OSI-027 (first compound 8 µM).

Regarding COR-L23, the relative viability turned out to be 0.576 in test [1] (first compound 0.08 µM); 0.737 in test [1] (first compound 0.253 µM); 0.697 in test [1] (first compound 0.8 µM); 0.326 in test [1] (first compound 2.53 µM); 0.973 with Ricolinostat + Foretinib (first compound 0.08 µM); 0.965 with Ricolinostat + Foretinib (first compound 0.253 µM). Further, the relative viability is 0.87 with Ricolinostat + Foretinib (first compound 0.8 µM); 0.653 with Ricolinostat + Foretinib (first compound 2.53 µM); 0.261 in test [2] (first compound 0.08 µM); 0.227 in test [2] (first compound 0.253 µM); 0.203 in test [2] (first compound 0.8 µM); 0.156 in test [2] (first compound 2.53 µM). Further, the relative viability in the test with TGX 221 + OSI-027 (first compound 0.08 µM) was 0.713; with TGX 221 + OSI-027 (first compound 0.253 µM), 0.777; in the test with TGX 221 + OSI-027 (first compound 0.8 µM) it was 0.815; in the test with TGX 221 + OSI-027 (first compound 2.53 µM), 0.835; in the test with TGX 221 + OSI-027 (first compound 8 µM), 0.715.

As to COR-L 105, the relative viability in test [1] (first compound 0.08 µM) came out at 0.367; in test [1] (first compound 0.253 µM), 0.412; in test [1] (first compound 0.8 µM), 0.485; in test [1] (first compound 2.53 µM) it was 0.279; with Ricolinostat + Foretinib (first compound 0.253 µM), 0.874; in the test with Ricolinostat + Foretinib (first compound 0.8 µM), 0.917. For the same cell line, the relative viability amounted to 1.16 with Ricolinostat + Foretinib (first compound 2.53 µM); 0.401 in test [2] (first compound 0.08 µM); 0.396 in test [2] (first compound 0.253 µM); 0.387 in test [2] (first compound 0.8 µM); 0.476 in test [2] (first compound 2.53 µM); 0.793 in the test with TGX 221 + OSI-027 (first compound 0.08 µM). Moreover, the relative viability was 0.612 with TGX 221 + OSI-027 (first compound 0.253 µM), 0.759 with TGX 221 + OSI-027 (first compound 0.8 µM), 1.03 with TGX 221 + OSI-027 (first compound 2.53 µM) and 0.627 with TGX 221 + OSI-027 (first compound 8 µM).

For Calu-6, the relative viability in test [1] (first compound 0.08 µM) was 0.898; in test [1] (first compound 0.253 µM), 0.91; in test [1] (first compound 0.8 µM) it was 0.795; in test [1] (first compound 2.53 µM), 0.648; with Ricolinostat + Foretinib (first compound 0.08 µM), 0.923; with Ricolinostat + Foretinib (first compound 0.253 µM), 0.93. For the same cell line, the relative viability with Ricolinostat + Foretinib (first compound 0.8 µM) turned out to be 0.848; in the test with Ricolinostat + Foretinib (first compound 2.53 µM), 0.83.
